Measured values: patent US10898481B2 (priority 2018, dated 2021)

Tests used:
[1] = target: hADORA1/CHO (hA1 expressing) cells (Homo sapiens (Human), UniProt P30542); assay: cell-based; details: FLIPR inhibition, 10 μM adenosine, read-out: cAMP & FLIPR IC50 (nM) hA1
[2] = target: hA2a/CHO (Homo sapiens (Human), UniProt P29274); assay: cAMP inhibition assay in hA2a/CHO cells, 10 μM adenosine; format: cell-based; details: read-out: cAMP & FLIPR IC50 (nM) hA2a;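 further: compounds added to cells 30 min ahead of adenosine, then a further 30 min at 37 °C with adenosine before cAMP detection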
Chain of hA2a/CHO (P29274 whole entry): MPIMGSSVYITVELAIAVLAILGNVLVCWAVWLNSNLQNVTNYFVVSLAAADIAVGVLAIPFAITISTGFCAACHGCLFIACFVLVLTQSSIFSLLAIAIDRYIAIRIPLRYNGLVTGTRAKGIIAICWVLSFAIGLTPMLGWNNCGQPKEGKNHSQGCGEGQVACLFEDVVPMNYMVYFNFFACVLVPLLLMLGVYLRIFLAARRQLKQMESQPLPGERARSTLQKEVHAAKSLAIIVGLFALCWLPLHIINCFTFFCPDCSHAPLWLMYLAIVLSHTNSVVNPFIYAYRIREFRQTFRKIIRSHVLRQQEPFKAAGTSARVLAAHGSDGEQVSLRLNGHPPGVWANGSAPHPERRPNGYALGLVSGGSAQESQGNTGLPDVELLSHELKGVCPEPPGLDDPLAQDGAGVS
Experimental: (§1) hA2a/CHO, hA2b/CHO, hA3/CHO and mA2a/CHO (Genscript) were plated at 5×10^3 cells/well into 384-well polystyrene plates at the day of experiment. Compounds were pre-incubated with cells for 30 min at 37° C., 5% CO2. Then 10 μM adenosine was added to the cells and incubated for 30 min at 37° C., 5% CO2. Detection reagent (CISBIO) was added and the plates were incubated for 60 min at room temperature. The signal was captured by Envision.

[3] = target: mA2a/CHO (Mus musculus (Mouse), UniProt Q60613); assay: cAMP inhibition assay in mA2a/CHO cells, 10 μM adenosine; format: cell-based; details: read-out: cAMP & FLIPR IC50 (nM) mA2a;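 further: compounds preincubated 30 min at 37 °C before the adenosine challenge, then 30 min further stimulation, readout after 60 min detection reagent incubation at room temperature in 384-well plates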
Chain of mA2a/CHO (Q60613 whole entry): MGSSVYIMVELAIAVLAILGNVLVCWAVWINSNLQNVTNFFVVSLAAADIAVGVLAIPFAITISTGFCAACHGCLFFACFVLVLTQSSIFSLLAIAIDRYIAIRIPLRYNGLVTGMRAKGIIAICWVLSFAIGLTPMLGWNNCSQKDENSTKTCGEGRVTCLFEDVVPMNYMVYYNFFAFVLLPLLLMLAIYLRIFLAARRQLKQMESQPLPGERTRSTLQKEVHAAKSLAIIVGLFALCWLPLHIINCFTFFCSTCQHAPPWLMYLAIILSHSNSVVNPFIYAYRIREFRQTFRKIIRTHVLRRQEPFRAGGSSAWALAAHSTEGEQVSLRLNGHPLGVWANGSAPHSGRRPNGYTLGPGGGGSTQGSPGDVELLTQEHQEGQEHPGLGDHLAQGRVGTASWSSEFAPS
Experimental: as §1

[4] = target: hA2b/CHO (Homo sapiens (Human), UniProt P29275); assay: cAMP inhibition assay in hA2b/CHO cells, 10 μM adenosine; format: cell-based; details: read-out: cAMP & FLIPR IC50 (nM) hA2b;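 further: cells exposed to compound 30 min at 37 °C, then stimulated with adenosine a further 30 min, cAMP read after 60 min at room temperature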
Chain of hA2b/CHO (P29275 whole entry): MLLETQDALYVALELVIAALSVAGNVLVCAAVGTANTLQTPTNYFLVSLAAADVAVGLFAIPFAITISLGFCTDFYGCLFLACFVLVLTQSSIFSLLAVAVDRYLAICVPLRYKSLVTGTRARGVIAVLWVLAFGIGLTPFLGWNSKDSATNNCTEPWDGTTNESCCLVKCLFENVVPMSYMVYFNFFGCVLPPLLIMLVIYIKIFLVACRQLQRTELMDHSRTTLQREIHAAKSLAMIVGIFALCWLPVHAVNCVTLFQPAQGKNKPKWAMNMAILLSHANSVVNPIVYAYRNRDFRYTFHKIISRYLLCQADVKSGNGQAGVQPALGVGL
Experimental: as §1

Chain of hADORA1/CHO (hA1 expressing) cells (P30542 whole entry): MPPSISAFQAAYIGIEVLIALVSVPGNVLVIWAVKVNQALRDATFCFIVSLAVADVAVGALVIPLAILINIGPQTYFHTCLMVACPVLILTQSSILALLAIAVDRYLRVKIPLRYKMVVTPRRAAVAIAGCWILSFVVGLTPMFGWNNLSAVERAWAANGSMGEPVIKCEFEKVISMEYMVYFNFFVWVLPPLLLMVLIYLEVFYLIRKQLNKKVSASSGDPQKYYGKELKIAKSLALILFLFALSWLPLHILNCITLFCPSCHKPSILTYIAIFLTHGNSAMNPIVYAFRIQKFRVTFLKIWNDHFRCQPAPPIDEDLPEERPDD

Row | Structure (SMILES) | IC50 [1] | IC50 [2] | IC50 [3] | IC50 [4]
1 | COc1ccccc1C(=O)NCc1nc(-c2cc(C)nc(C)c2)c(-c2ccc(F)cc2)nc1N [Example 86, N-((3-amino-6-(2,6-dimethylpyridin-4-yl)-5-(4-fluorophenyl)pyrazin-2-yl)methyl)-2-methoxybenzamide] | 539 nM | 5 nM | 192 nM | 7830 nM
2 | Cn1cc(-c2nc(C(=O)NCc3c(F)cccc3N3CCOCC3)c(N)nc2-c2ncco2)ccc1=O [Example 39, 3-amino-N-[[2-fluoro-6-(morpholin-4-yl)phenyl]methyl]-6-(1-methyl-6-oxo-1,6-dihydropyridin-3-yl)-5-(1,3-oxazol-2-yl)pyrazine-2-carboxamide] | 32 nM | 7.8 nM | 3.3 nM | 2120 nM
3 | Cc1cnc2ccc(-c3nc(C(=O)NCC4(N(C)C)CC4)c(N)nc3-c3ccc(F)cc3)cn12 [Example 154, 3-amino-N-[[1-(dimethylamino)cyclopropyl]methyl]-5-(4-fluorophenyl)-6-[3-methylimidazo[1,2-a]pyridin-6-yl]pyrazine-2-carboxamide] | 10000 nM | 11 nM | 121 nM | 1150 nM
4 | Cc1cnc2ccc(-c3nc(C(=O)NCCN(C)c4ccccn4)c(N)nc3-c3ncco3)cn12 [Example 240, 3-amino-N-(2-(methyl(pyridin-2-yl)amino)ethyl)-6-(3-methylimidazo[1,2-a]pyridin-6-yl)-5-(oxazol-2-yl)pyrazine-2-carboxamide] | 108 nM | 18 nM | 65 nM | 521 nM
5 | Cc1cnc2ccc(-c3nc(C(=O)N[C@H]4CCCOC4)c(N)nc3-c3ncco3)cn12 (single isomer, unassigned; isomer 1) [Example 163, 3-amino-6-(3-methylimidazo[1,2-a]pyridin-6-yl)-5-(oxazol-2-yl)-N-(tetrahydro-2H-pyran-3-yl)pyrazine-2-carboxamide (isomer 1)] | > 10000 nM | 3.28 nM | 22 nM | 387 nM
6 | Cc1cnc2ccc(-c3nc(C(=O)NCCC(=O)N4CCCCC4)c(N)nc3-c3ncco3)cn12 [Example 215, 3-amino-6-(3-methylimidazo[1,2-a]pyridin-6-yl)-5-(oxazol-2-yl)-N-(3-oxo-3-(piperidin-1-yl)propyl)pyrazine-2-carboxamide] | 891 nM | 12 nM | 9.6 nM | 568 nM
7 | Cc1cnc2ccc(-c3nc(C(=O)NC4CC4)c(N)nc3-c3ncco3)cn12 [Example 245, 3-amino-N-cyclopropyl-6-(3-methylimidazo[1,2-a]pyridin-6-yl)-5-(oxazol-2-yl)pyrazine-2-carboxamide] | 87 nM | 3.8 nM | 39 nM | 247 nM
8 | CNc1cccc(CNC(=O)c2nc(-c3ccc4nccn4c3)c(-c3ncco3)nc2N)n1 [Example 99, 3-amino-6-(imidazo[1,2-a]pyridin-6-yl)-N-((6-(methylamino)pyridin-2-yl)methyl)-5-(oxazol-2-yl)pyrazine-2-carboxamide] | 171 nM | 5.1 nM | 35 nM | 200 nM
9 | Cn1cnc2ccc(-c3nc(C(=O)NCc4ncccc4OCC(N)=O)c(N)nc3-c3ccc(F)cc3)cc21 [Example 119, 3-amino-N-[[3-(carbamoylmethoxy)pyridin-2-yl]methyl]-5-(4-fluorophenyl)-6-(1-methyl-1H-1,3-benzodiazol-6-yl)pyrazine-2-carboxamide] | 41 nM | 1.1 nM | 4.7 nM | 31 nM
10 | Cn1cc(-c2nc(CNC(=O)c3ncccc3OC(F)F)c(N)nc2-c2ccc(F)cc2)ccc1=O [Example 21, N-[[3-amino-5-(4-fluorophenyl)-6-(1-methyl-6-oxo-1,6-dihydropyridin-3-yl)pyrazin-2-yl]methyl]-3-(difluoromethoxy)pyridine-2-carboxamide] | 18 nM | 98 nM | 73 nM | 638 nM
11 | CC1CN(c2nc(C(=O)NCc3c(F)cccc3F)c(N)nc2-c2ccc(F)cc2)CC(C)O1 (stereo not drawn) [Example 6, 3-amino-N-(2,6-difluorobenzyl)-6-(2,6-dimethylmorpholino)-5-(4-fluorophenyl)pyrazine-2-carboxamide] | 8840 nM | 87 nM | 1060 nM | ≥ 10000 nM
12 | Cc1cnc2ccc(-c3nc(C(=O)NCc4cccc(N[C@H]5C[C@H](N(C)C)C5)n4)c(N)nc3-c3ncco3)cn12 [Cmpd. 227, Trans-3-amino-6-[3-methyl-imidazo[1,2-a]pyridin-6-yl]-5-(1,3-oxazol-2-yl)-N-[(6-[[3-(dimethylamino)cyclobutyl]amino]pyridin-2-yl)methyl]pyrazine-2-carboxamide] | 781 nM | 4.4 nM | 24 nM | 99 nM
13 | Cc1cnc2ccc(-c3nc(C(=O)NCCN4CCCC4=O)c(N)nc3-c3ncco3)cn12 [Example 208, 3-amino-6-(3-methylimidazo[1,2-a]pyridin-6-yl)-5-(oxazol-2-yl)-N-(2-(2-oxopyrrolidin-1-yl)ethyl)pyrazine-2-carboxamide] | 9540 nM | 8.9 nM | 19 nM | 1230 nM
14 | Cc1cnc2ccc(-c3nc(C(=O)NCC4(C)CCOC4)c(N)nc3-c3ncco3)cn12 (single isomer, unassigned; isomer 2) [Example 252, 3-amino-6-(3-methylimidazo[1,2-a]pyridin-6-yl)-N-((3-methyltetrahydrofuran-3-yl)methyl)-5-(oxazol-2-yl)pyrazine-2-carboxamide (isomer 2)] | 260 nM | 2.9 nM | 30 nM | 821 nM
15 | Cc1cnc2ccc(-c3nc(C(=O)NCC4CCCCN4C)c(N)nc3-c3ncco3)cn12 (single isomer, unassigned; isomer 1) [Example 124, 3-amino-6-(3-methylimidazo[1,2-a]pyridin-6-yl)-N-((1-methylpiperidin-2-yl)methyl)-5-(oxazol-2-yl)pyrazine-2-carboxamide (isomer 1)] | 10000 nM | 2260 nM | ≥ 10000 nM | ≥ 10000 nM
16 | COc1ccccc1CNC(=O)c1nc(-c2ccc(=O)n(C(F)F)c2)c(-c2ccc(F)cc2)nc1N [Example 76, 3-amino-6-(1-(difluoromethyl)-6-oxo-1,6-dihydropyridin-3-yl)-5-(4-fluorophenyl)-N-(2-methoxybenzyl) pyrazine-2-carboxamide] | 68 nM | 4.2 nM | 22 nM | 76 nM
17 | Cc1cnc2ccc(-c3nc(C(=O)NCC4(C)CCCN4C)c(N)nc3-c3ncco3)cn12 (single isomer, unassigned; isomer 2) [Example 247, 3-amino-N-((1,2-dimethylpyrrolidin-2-yl)methyl)-6-(3-methylimidazo[1,2-a]pyridin-6-yl)-5-(oxazol-2-yl)pyrazine-2-carboxamide (isomer 2)] | 1490 nM | 36 nM | 345 nM | 2000 nM
18 | COCCOc1cccnc1CNC(=O)c1nc(-c2ccc3ncn(C)c3c2)c(-c2ccc(F)cc2)nc1N [Example 114, 3-amino-5-(4-fluorophenyl)-N-[[3-(2-methoxyethoxy)pyridin-2-yl]methyl]-6-(1-methyl-1H-1,3-benzodiazol-6-yl)pyrazine-2-carboxamide] | 83 nM | 0.7 nM | 1.5 nM | 170 nM
19 | Cc1cnc2ccc(-c3nc(C(=O)NCC4COCCO4)c(N)nc3-c3ncco3)cn12 (racemic) [Example 211, rac-N-((1,4-dioxan-2-yl)methyl)-3-amino-6-(3-methylimidazo[1,2-a]pyridin-6-yl)-5-(oxazol-2-yl)pyrazine-2-carboxamide] | 319 nM | 3.6 nM | 19 nM | 160 nM
20 | Cc1cnc2ccc(-c3nc(C(=O)NCCC#N)c(N)nc3-c3ncco3)cn12 [Example 142, 3-amino-N-(2-cyanoethyl)-6-(3-methyl-imidazo[1,2-a]pyridin-6-yl)-5-(oxazol-2-yl)pyrazine-2-carboxamide] | 10000 nM | 10 nM | 73 nM | 319 nM
21 | Nc1nc(-c2ccc(F)cc2)c(-c2ccc(=O)n(C3CC3)c2)nc1C(=O)NCc1c(F)cccc1F [Example 87, 3-amino-6-(1-cyclopropyl-6-oxo-1,6-dihydropyridin-3-yl)-N-(2,6-difluorobenzyl)-5-(4-fluorophenyl)pyrazine-2-carboxamide] | 31 nM | 10 nM | 22 nM | 153 nM
22 | Cc1cc(-c2nc(C(=O)NCc3ccccc3F)c(N)nc2-c2ccc(F)cc2)cc(C)n1 [Example 78, 3-amino-6-(2,6-dimethylpyridin-4-yl)-N-(2-fluorobenzyl)-5-(4-fluorophenyl)pyrazine-2-carboxamide] | 2730 nM | 44 nM | 934 nM | ≥ 10000 nM
23 | Cc1cc(-c2nc(C(=O)NCc3c(F)cccc3OC(F)F)c(N)nc2-c2ccc(F)cc2)cc(C)n1 [Example 85, 3-amino-N-(2-(difluoromethoxy)-6-fluorobenzyl)-6-(2,6-dimethylpyridin-4-yl)-5-(4-fluorophenyl)pyrazine-2-carboxamide] | 299 nM | 2.5 nM | 36 nM | 418 nM
24 | Cc1cnc2ccc(-c3nc(C(=O)NC[C@@H](C)O)c(N)nc3-c3ncco3)cn12 [Example 145, (R)-3-amino-N-(2-hydroxypropyl)-6-(3-methylimidazo[1,2-a]pyridin-6-yl)-5-(oxazol-2-yl)pyrazine-2-carboxamide] | 10000 nM | 32 nM | 205 nM | 789 nM
